Results reported in US6365178B1, “Method of making pressure sensitive adhesive matrix patches for transdermal drug delivery using hydrophilic salts of drugs and hydrophobic pressure sensitive adhesive dispersions” (priority 1996, dated 2002).
Where a name gives a salt, the structure may show the parent alone. Values belong to the compound of their own block, whether it stands above or below them.

What was measured:
[1] = Visual/microscopic observation of matrix films for drug crystals after preparation and on storage (physical stability); type: physicochemical; details: for Observations: drug crystals: 59 weeks of storage at 40° C./75% RH, microscopic
Procedure: As used herein, “physical stability” of a drug in a matrix patch includes the lack of recrystallization of the drug in the dried adhesive layer of the patch.
Pressure sensitive adhesive matrix systems described herein were prepared as follows. First, the solids content of a water-based or solvent-based adhesive in liquid form was determined by placing a known weight of liquid in a weighed aluminum dish and evaporating the solvents overnight in a 70° C. convection oven. The content of solid adhesive in the liquid was calculated by dividing the adhesive solid weight after drying by the initial total liquid weight. In some cases, the polyisobutylene (PIB) adhesives were prepared from polyisobutylene solids. The solid PIB was first dissolved in heptane to achieve a final solid content of about 30% by weight, and then the exact solid content was determined as described above. Next, a weighed quantity of adhesive liquid was added to a glass bottle, and the solid adhesive weight was calculated from the known solid fraction of the given adhesive liquid. The drug substance (hydrophilic salt or free drug form) was weighed and added to the adhesive solution in a quantity necessary to achieve a selected dry matrix film composition. The liquid containing the adhesive polymer drug substance was then mixed overnight. […] After mixing, approximately 8 ml of the solution was dispensed on a silanized polyester release liner and film cast using a casting knife with a gap size appropriate to achieve a final dried thickness of approximately 0.05-0.1 mm. The cast was dried in a 70° C. convection oven for 15-30 minutes to yield a dried matrix onto which an 0.08 mm thick polyethylene backing film was laminated. These matrix systems were then used to conduct in vitro skin flux experiments as described below. […]
The systems manufactured with the salt and the water-based adhesive dispersions were stored at room temperature and examined using optical microscopy at 100× magnification for the presence of drug crystals.

[2] = Dissolution of drug substance in liquid adhesive or solvent during matrix preparation; type: physicochemical; details: for Dissolution in organic solvent system: Example 7, TSR, equivalent to 1% or 2% (w/w) diclofenac sodium
Procedure: Pressure sensitive adhesive matrix systems described herein were prepared as follows. First, the solids content of a water-based or solvent-based adhesive in liquid form was determined by placing a known weight of liquid in a weighed aluminum dish and evaporating the solvents overnight in a 70° C. convection oven. The content of solid adhesive in the liquid was calculated by dividing the adhesive solid weight after drying by the initial total liquid weight. In some cases, the polyisobutylene (PIB) adhesives were prepared from polyisobutylene solids. […] Next, a weighed quantity of adhesive liquid was added to a glass bottle, and the solid adhesive weight was calculated from the known solid fraction of the given adhesive liquid. The drug substance (hydrophilic salt or free drug form) was weighed and added to the adhesive solution in a quantity necessary to achieve a selected dry matrix film composition. The liquid containing the adhesive polymer drug substance was then mixed overnight. […] The cast was dried in a 70° C. convection oven for 15-30 minutes to yield a dried matrix onto which an 0.08 mm thick polyethylene backing film was laminated. These matrix systems were then used to conduct in vitro skin flux experiments as described below.

[3] = Example 7, TSR, equivalent to 1% or 2% (w/w) diclofenac sodium
[4] = Example 8, Nacor 72-9965 with 5.0% Kollidon 90F, 12%

- Drug crystals in dried matrix [1, 3]: contained crystallized drug
- Dissolution in organic solvent system [2]: not sufficiently soluble
Compound: O=C(O)Cc1ccccc1Nc1c(Cl)cccc1Cl [diclofenac sodium]
- Drug crystals in dried matrices ([1]; Example 7, water-based NACOR 72-9965 and ROBOND PS20, 1% or 2% (w/w)): physically stable and visually free of drug crystals

- Drug crystals in dried matrix [1, 3]: visually free of drug crystals
- Dissolution in organic solvent system [2]: completely dissolved
Compound: O=C(O)Cc1ccccc1Nc1c(Cl)cccc1Cl [diclofenac free acid, diclofenac]

- Drug crystals in dry matrix film ([1]; Example 10, VISTANEX MM L-100/LM-MH PIB blend, equivalent to 2% (w/w) HCl salt): free from drug crystals
- Dissolution in organic solvent solution ([2]; Example 10, VISTANEX MM L-100/LM-MH PIB blend in organic solvents, equivalent to 2% (w/w) HCl salt): dissolved readily
Compound: Clc1cccc(Cl)c1N=C1NCCN1 [clonidine free base, clonidine]

- Observations: drug crystals ([1]; 10% (w/w) in NACOR 9965 (water-based acrylic) with 5% KOLLIDON 90F): No crystals were observed
Compound: albuterol sulfate

- Observations: drug crystals ([1]; 10% (w/w) in TSR (organic solvent-based acrylic)): Crystals were observed
Compound: CC(C)(C)NCC(O)c1ccc(O)c(CO)c1 (stereo not drawn) [Albuterol Free Base, albuterol]

- Dissolution in water-based dispersion [2, 4]: dissolved readily
Compound: CC(=O)CC(c1ccccc1)c1c(O)c2ccccc2oc1=O (stereo not drawn) [sodium warfarin, warfarin sodium]
- Drug crystals in dry matrix [1, 4]: free from visible and microscopic drug crystals

Compound: CCN(CC)CC(=O)Nc1c(C)cccc1C [lidocaine HCl]
- Drug crystals in dried matrix ([1]; Example 9, DURO-TAK 2516, equivalent to 1% (w/w) HCl salt, HCl): contains visible solid drug crystals
- Drug crystals in dried matrix ([1]; Example 9, NACOR 72-9965, 1% (w/w)): physically stable and free of drug crystals

- Drug crystals in dried matrix ([1]; Example 10, water-based PIB 500/BUTYL 100 (Lord), 2% (w/w)): visibly free of drug crystals
Compound: Clc1cccc(Cl)c1N=C1NCCN1 [clonidine HCl]

Compound: CCN(CC)CC(=O)Nc1c(C)cccc1C [lidocaine free base, lidocaine]
- Drug crystals in dried matrix ([1]; Example 9, DURO-TAK 2516, equivalent to 1% (w/w) HCl salt): visibly free of drug crystals
